From ChEMBL document CHEMBL4184210, “Optimization of novel monobactams with activity against carbapenem-resistant Enterobacteriaceae - Identification of LYS228” (Bioorg Med Chem Lett, 2018)
≈ marks a conversion by molar mass, not a printed value.

Experiments:
[1] = test system: Escherichia coli; test: microbe, parasite or virus in culture
Description: Antimicrobial activity against Escherichia coli expressing beta-lactamase AmpC by CLSI broth microdilution method

[2] = test system: Escherichia coli; test: microbe, parasite or virus in culture; remark: listed apart in the source
Description: Antimicrobial activity against Escherichia coli expressing beta-lactamase TEM-121 by CLSI broth microdilution method

[3] = test system: Escherichia coli; test: microbe, parasite or virus in culture; remark: listed apart in the source
Description: Antimicrobial activity against Escherichia coli expressing beta-lactamase SME-1 by CLSI broth microdilution method

[4] = test system: Escherichia coli; test: microbe, parasite or virus in culture; remark: listed apart in the source
Description: Antimicrobial activity against Escherichia coli expressing beta-lactamase KPC-4 by CLSI broth microdilution method

[5] = test system: Escherichia coli; test: microbe, parasite or virus in culture; remark: listed apart in the source
Description: Antimicrobial activity against Escherichia coli expressing beta-lactamase TEM-16 by CLSI broth microdilution method

[6] = test system: Escherichia coli; test: microbe, parasite or virus in culture; remark: listed apart in the source
Description: Antimicrobial activity against Escherichia coli expressing beta-lactamase Oxa-51 by CLSI broth microdilution method

[7] = test system: Escherichia coli; test: microbe, parasite or virus in culture; remark: listed apart in the source
Description: Antimicrobial activity against Escherichia coli expressing beta-lactamase Oxa-48 by CLSI broth microdilution method

[8] = test system: Escherichia coli; test: microbe, parasite or virus in culture; remark: listed apart in the source
Description: Antimicrobial activity against Escherichia coli expressing beta-lactamase VEB-4 by CLSI broth microdilution method

[9] = test system: Escherichia coli; test: microbe, parasite or virus in culture; remark: listed apart in the source
Description: Antimicrobial activity against Escherichia coli expressing beta-lactamase GIM-1 by CLSI broth microdilution method

[10] = test system: Escherichia coli; test: microbe, parasite or virus in culture; remark: listed apart in the source
Description: Antimicrobial activity against wild type Escherichia coli by CLSI broth microdilution method

[11] = test system: Escherichia coli; test: microbe, parasite or virus in culture; remark: listed apart in the source
Description: Antimicrobial activity against Escherichia coli expressing beta-lactamase TEM-47 by CLSI broth microdilution method

[12] = test system: Escherichia coli; test: microbe, parasite or virus in culture; remark: listed apart in the source
Description: Antimicrobial activity against Escherichia coli expressing beta-lactamase CTXM-15 by CLSI broth microdilution method

[13] = test system: Escherichia coli; test: Antimicrobial activity against Escherichia coli expressing beta-lactamase NDM-5 by CLSI broth microdilution method; format: functional
[14] = test system: Escherichia coli; test: microbe, parasite or virus in culture; remark: listed apart in the source
Description: Antimicrobial activity against Escherichia coli expressing beta-lactamase KPC-8 by CLSI broth microdilution method

[15] = test system: Escherichia coli; test: microbe, parasite or virus in culture; remark: listed apart in the source
Description: Antimicrobial activity against Escherichia coli expressing beta-lactamase DHA by CLSI broth microdilution method

[16] = test system: Escherichia coli; test: microbe, parasite or virus in culture; remark: listed apart in the source
Description: Antimicrobial activity against Escherichia coli expressing beta-lactamase CMY-2 by CLSI broth microdilution method

[17] = test system: Escherichia coli; test: microbe, parasite or virus in culture; remark: listed apart in the source
Description: Antimicrobial activity against Escherichia coli expressing beta-lactamase Oxa-10 by CLSI broth microdilution method

[18] = test system: Escherichia coli; test: microbe, parasite or virus in culture; remark: listed apart in the source
Description: Antimicrobial activity against Escherichia coli expressing beta-lactamase VIM-1 by CLSI broth microdilution method

[19] = test system: Escherichia coli; test: microbe, parasite or virus in culture; remark: listed apart in the source
Description: Antimicrobial activity against Escherichia coli expressing beta-lactamase IMP-1 by CLSI broth microdilution method

[20] = test system: Escherichia coli; test: Antimicrobial activity against Escherichia coli expressing beta-lactamase TEM-1 by CLSI broth microdilution method; format: functional
[21] = test system: Escherichia coli; test: Antimicrobial activity against Escherichia coli expressing beta-lactamase VEB-1 by CLSI broth microdilution method; format: functional
[22] = test system: Escherichia coli; test: microbe, parasite or virus in culture; remark: listed apart in the source
Description: Antimicrobial activity against Escherichia coli expressing beta-lactamase PER-2 by CLSI broth microdilution method

[23] = test system: Escherichia coli; test: microbe, parasite or virus in culture; remark: listed apart in the source
Description: Antimicrobial activity against Escherichia coli expressing beta-lactamase CTXM-3 by CLSI broth microdilution method

[24] = test system: Escherichia coli; test: microbe, parasite or virus in culture; remark: listed apart in the source
Description: Antimicrobial activity against Escherichia coli expressing beta-lactamase PER-4 by CLSI broth microdilution method

[25] = test system: Escherichia coli; test: microbe, parasite or virus in culture; remark: listed apart in the source
Description: Antimicrobial activity against Escherichia coli expressing beta-lactamase SPM-1 by CLSI broth microdilution method

[26] = test system: Escherichia coli; test: microbe, parasite or virus in culture; remark: listed apart in the source
Description: Antimicrobial activity against Escherichia coli expressing beta-lactamase Oxa-23 by CLSI broth microdilution method

[27] = test system: Escherichia coli; test: microbe, parasite or virus in culture; remark: listed apart in the source
Description: Antimicrobial activity against Escherichia coli expressing beta-lactamase PER-1 by CLSI broth microdilution method

[28] = test system: Escherichia coli; test: microbe, parasite or virus in culture; remark: listed apart in the source
Description: Antimicrobial activity against Escherichia coli expressing beta-lactamase Oxa-146 by CLSI broth microdilution method

[29] = test system: Escherichia coli; test: microbe, parasite or virus in culture; remark: listed apart in the source
Description: Antimicrobial activity against Escherichia coli expressing beta-lactamase MIR-1 by CLSI broth microdilution method

[30] = test system: Escherichia coli; test: microbe, parasite or virus in culture; remark: listed apart in the source
Description: Antimicrobial activity against Escherichia coli expressing beta-lactamase NMC-A by CLSI broth microdilution method

[31] = test system: Escherichia coli; test: microbe, parasite or virus in culture; remark: listed apart in the source
Description: Antimicrobial activity against Escherichia coli expressing beta-lactamase TEM-24 by CLSI broth microdilution method

[32] = test system: Escherichia coli; test: microbe, parasite or virus in culture; remark: listed apart in the source
Description: Antimicrobial activity against Escherichia coli expressing beta-lactamase Oxa-40 by CLSI broth microdilution method

[33] = test system: Escherichia coli; test: microbe, parasite or virus in culture; remark: listed apart in the source
Description: Antimicrobial activity against Escherichia coli expressing beta-lactamase IMI-1 by CLSI broth microdilution method

[34] = test system: Escherichia coli; test: microbe, parasite or virus in culture; remark: listed apart in the source
Description: Antimicrobial activity against Escherichia coli expressing beta-lactamase GES-1 by CLSI broth microdilution method

[35] = test system: Escherichia coli; test: microbe, parasite or virus in culture; remark: listed apart in the source
Description: Antimicrobial activity against Escherichia coli expressing beta-lactamase Oxa-160 by CLSI broth microdilution method

[36] = test system: Escherichia coli; test: microbe, parasite or virus in culture; remark: listed apart in the source
Description: Antimicrobial activity against Escherichia coli expressing beta-lactamase VEB-7 by CLSI broth microdilution method

[37] = test system: Escherichia coli; test: microbe, parasite or virus in culture; remark: listed apart in the source
Description: Antimicrobial activity against Escherichia coli expressing beta-lactamase Oxa-181 by CLSI broth microdilution method

[38] = test system: Escherichia coli; test: microbe, parasite or virus in culture; remark: listed apart in the source
Description: Antimicrobial activity against Escherichia coli expressing beta-lactamase KPC-3 by CLSI broth microdilution method

[39] = test system: Escherichia coli; test: Antimicrobial activity against Escherichia coli expressing beta-lactamase KPC-2 by CLSI broth microdilution method; format: functional
[40] = test system: Escherichia coli; test: microbe, parasite or virus in culture; remark: listed apart in the source
Description: Antimicrobial activity against Escherichia coli expressing beta-lactamase Oxa-225 by CLSI broth microdilution method

[41] = test system: Escherichia coli; test: Antimicrobial activity against Escherichia coli expressing beta-lactamase NDM-1 by CLSI broth microdilution method; format: functional
[42] = test system: Escherichia coli; test: microbe, parasite or virus in culture; remark: listed apart in the source
Description: Antimicrobial activity against Escherichia coli expressing beta-lactamase Oxa-18 by CLSI broth microdilution method

[43] = test system: Escherichia coli; test: microbe, parasite or virus in culture; remark: listed apart in the source
Description: Antimicrobial activity against Escherichia coli expressing beta-lactamase P99 by CLSI broth microdilution method

[44] = test system: Escherichia coli; test: microbe, parasite or virus in culture; remark: listed apart in the source
Description: Antimicrobial activity against Escherichia coli expressing beta-lactamase TEM-10 by CLSI broth microdilution method

[45] = test system: Escherichia coli; test: microbe, parasite or virus in culture; remark: listed apart in the source
Description: Antimicrobial activity against Escherichia coli expressing beta-lactamase SHV-12 by CLSI broth microdilution method

[46] = Chemical stability in pH 7.4 potassium phosphate buffer assessed as half life for compound hydrolysis at 37 degC by UPLC and mass spectrometry; format: physicochemical

CCN1CCN(C(=O)N[C@@H](C(=O)N[C@@H]2C(=O)N3[C@@H]2SC(C)(C)[C@@H]3C(=O)O)c2ccccc2)C(=O)C1=O [PIPERACILLIN]
MIC [1]: > 64 µg/mL | MIC [2]: 64 µg/mL (≈ 124 µM) | MIC [3]: > 64 µg/mL | MIC [4]: > 64 µg/mL | MIC [5]: 64 µg/mL (≈ 124 µM) | MIC [6]: 8 µg/mL (≈ 15.5 µM) | MIC [7]: > 64 µg/mL | MIC [8]: 8 µg/mL (≈ 15.5 µM) | MIC [9]: > 64 µg/mL | MIC [10]: 4 µg/mL (≈ 7.73 µM) | MIC [11]: 64 µg/mL (≈ 124 µM) | MIC [12]: > 64 µg/mL | MIC [13]: > 64 µg/mL | MIC [14]: > 64 µg/mL | MIC [15]: 64 µg/mL (≈ 124 µM) | MIC [16]: 32 µg/mL (≈ 61.8 µM) | MIC [17]: > 64 µg/mL | MIC [18]: > 64 µg/mL | MIC [19]: 16 µg/mL (≈ 30.9 µM) | MIC [20]: > 64 µg/mL | MIC [21]: 32 µg/mL (≈ 61.8 µM) | MIC [22]: > 64 µg/mL | MIC [23]: > 64 µg/mL | MIC [24]: 8 µg/mL (≈ 15.5 µM) | MIC [25]: 64 µg/mL (≈ 124 µM) | MIC [26]: > 64 µg/mL | MIC [27]: 32 µg/mL (≈ 61.8 µM) | MIC [28]: > 64 µg/mL | MIC [29]: 8 µg/mL (≈ 15.5 µM) | MIC [30]: 64 µg/mL (≈ 124 µM) | MIC [31]: 16 µg/mL (≈ 30.9 µM) | MIC [32]: > 64 µg/mL | MIC [33]: 64 µg/mL (≈ 124 µM) | MIC [34]: > 64 µg/mL | MIC [35]: 64 µg/mL (≈ 124 µM) | MIC [36]: 32 µg/mL (≈ 61.8 µM) | MIC [37]: > 64 µg/mL | MIC [38]: > 64 µg/mL | MIC [39]: > 64 µg/mL | MIC [40]: > 64 µg/mL | MIC [41]: > 64 µg/mL | MIC [42]: > 64 µg/mL | MIC [43]: 32 µg/mL (≈ 61.8 µM) | MIC [44]: > 64 µg/mL | MIC [45]: > 64 µg/mL

CC(C)(O/N=C(\C(=O)N[C@@H]1C(=O)N(S(=O)(=O)O)[C@@H]1Cn1ccc(N)n1)c1csc(N)n1)C(=O)O (stereo in doubt)
MIC [1]: > 64 µg/mL | MIC [10]: > 64 µg/mL | MIC [12]: > 64 µg/mL | half-life [46]: 0.146 days | MIC [39]: > 64 µg/mL | MIC [41]: > 64 µg/mL | MIC [44]: > 64 µg/mL | MIC [45]: > 64 µg/mL

CC(C)(O/N=C(\C(=O)N[C@@H]1C(=O)N(S(=O)(=O)O)[C@@H]1CN1CCOC1=O)c1csc(N)n1)C(=O)O (stereo in doubt)
MIC [1]: 2 µg/mL (≈ 3.84 µM) | MIC [10]: 0.5 µg/mL (≈ 0.961 µM) | MIC [12]: 0.5 to 1 µg/mL (≈ 0.961 to 1.92 µM) | MIC [16]: 4 µg/mL (≈ 7.68 µM) | half-life [46]: 20.1 days | MIC [39]: 0.5 µg/mL (≈ 0.961 µM) | MIC [41]: 0.5 µg/mL (≈ 0.961 µM) | MIC [44]: 2 µg/mL (≈ 3.84 µM) | MIC [45]: 1 µg/mL (≈ 1.92 µM)
